Assay results published in patent publication US20250346635A1, “VASCULAR ENDOTHELIAL GROWTH FACTOR RECEPTOR-1 (VEGFR-1) INHIBITORS FOR PROMOTING MYELINATION AND NEUROPROTECTION” (ICM (INSTITUT DU CERVEAU ET DE LA MOELLE ÉPINIÉRE), priority 2022, published 2025).

Key:
[1] = system: organotypic cerebellar slices; test: Myelination in organotypic cerebellar slices from P7 mice (MBP/CaBP); format: cell-based; conditions: 3 days ex vivo, slices from P7 mouse
Experimental: (§1) Organotypic cerebellar slices were generated from brains of postnatal day 0 (P0) and P7 mouse pups. Briefly, cerebella were dissected and cut into 350 μm slices. Cerebellar slices from the vermis were collected and then cultured on Millicell cell culture inserts (Millipore) in 6-wellplates in a medium composed of 50% Basal Medium Eagle, 25% Hank solution (HBSS), 25% inactivated horse serum, 5 mg/ml high-glucose, 1 mM L-glutamine, 0.2% penicillin-streptomycin. Slices were incubated at 37° C. (5% CO2) for 10 days (slices from P0) or 3 days (slices from P7). The culture medium was replaced every 2-3 days. For immunohistochemistry, slices were fixed in 4% paraformaldehyde and immunostained for CaBP and MBP. Briefly, slices were incubated in 4% BSA/0.2% triton for 1 hour and next incubated overnight with the following primary antibodies: rabbit anti-CaBP (dilution: 1/10000) and rat anti-MBP (dilution: 1/250). After several washes in PBS 0.1M, slices were then incubated with the secondary antibodies (anti-rabbit alexaFluor555, anti-mouse alexaFluor488) and Dapi for 2 hours and finally washed in PBS 0.1M and mounted in Fluoromount medium. Flurorescence imaging were performed with a confocal microscopy NIKON A1R-HD25.
(§2) Oligodendrocytes differentiation was assessed by analyzing the fold increase of MBP^+Sox10^+ cells in treated conditions relative to the basal condition. The percentage of MBP^+Sox10^+ cells were quantified after treatments with pan-VEGFRs and selective VEGFR-1 antagonists and compared with the basal medium. Results are shown as differentiation fold increase relative to the basal condition. Myelination was assessed using organotypic cerebellar slices generated from P7 mice cerebellum and the effect of VEGFRs sub-types antagonists on myelination was analyzed after immunostaining for Sox10 for oligodendroglia, MBP for myelin (white) and calbindin (gray). Slices were cultured in basal medium (control condition), or in the basal medium supplemented either with 9cis-RA (used as a positive control of myelination) or with VEGFR-1 selective and specific inhibitor (SU14813 and ZM306416), respectively. All compounds were used at 500 nM, except ZM306416 that has been used at 30 μM. The myelination index for each condition was quantified as the percentage of MBP+CaBP+ axons over the total CaBP+ axonal surface area and normalized relatively to basal condition.

[2] = system: Purkinje cells; test: Neuroprotection of Purkinje cells in organotypic cerebellar slices (CaBP immunostaining); format: cell-based; conditions: 10 days in vitro, slices from P0 mouse
Experimental: as §1
The neuroprotective effects of the drugs were assessed by evaluating the density of Purkinje cells in basal medium alone and in basal medium supplemented with VEGFRs inhibitors. Organotypic cerebellar slices obtained from P0 mouse (as described above) were cultured for 10 days in vitro in basal medium alone, or in the basal medium supplemented either with pan-VEGFRs inhibitors, VEGFR-2/3 specific inhibitor (Telatinib) or with VEGFR-1 selective and specific inhibitors (SU14813 and ZM306416), respectively. All compounds were used at 500 nM, except ZM306416 that was used at 30 μM. After treatments, slices were immunostained for CaBP, as described above.

[3] = system: rat primary OPC cultures; test: OPC differentiation in rat primary OPC cultures (MBP+Sox10+ cells); format: cell-based; conditions: 500 nM, 5 days in vitro
Experimental: Rat primary OPC cultures were obtained from neonatal pups (P0-P1). Brains were dissected, cerebellar cortices and meninges were removed. Brain tissues were next mechanically and enzymatically dissociated. After filtration and centrifugation, mixed cells of astrocytes, microglia and OPCs was cultured in DMEM medium on polyornithine-coated flasks. After 13-14 days of culture, microglial cells were removed by shaking during 2 h. OPCs were next collected after 18 h of shaking, followed by differential adhesion. OPCs purification was validated by immunostaining of Olig2 and Sox10. To induce differentiation, cells were kept in proliferation medium (DMEM-F12, 1% PS, FGF, PDGF, 1% laminin, Biotin, 2% B27, N1 mix) for 24 h and then switched to a differentiation medium with the same composition but deprived of FGF and PDGF. Cells were incubated at 37° C. (5% CO2) for 5 days and the medium was partially replaced every 2 days. Cells were then fixed in 2% paraformaldehyde and immunostained with Sox10 and MBP. Cells were incubated for 2 hours with primary antibodies Sox10 (Goat 1/100) and MBP (Rabbit 1/500) diluted in 4% BSA in PBS 0.1M/0.1% Triton. After washes, cells were then incubated with the secondary antibody (anti-Goat Alexa647, anti-Rabbit Alexa488 and Dapi) for 1 hour and finally washed in PBS 0.1M and mounted in Fluoromount medium. […]
as §2, with “Results are shown as differentiation fold increase relative to the basal condition.” left out, “Slices were cultured in basal medium (control condition), or in the basal medium supplemented either with 9cis-RA (used as a positive control of myelination) or with VEGFR-1 selective and specific inhibitor (SU14813 and ZM306416), respectively. All compounds were used at 500 nM, except ZM306416 that has been used at 30 μM.” left out

[4] = system: rat primary OPC cultures; test: OPC differentiation (Olig2+MBP+ cells/Olig2+ cells) after VEGFR-1 shRNA or blocking peptide; format: cell-based; conditions: blocking peptide vs control (basal medium), 5 days in differentiation medium
Experimental: Rat primary OPC cultures were obtained from neonatal pups (P0-P1). Brains were dissected, cerebellar cortices and meninges were removed. Brain tissues were next mechanically and enzymatically dissociated. After filtration and centrifugation, mixed cells of astrocytes, microglia and OPCs was cultured in DMEM medium on polyornithine-coated flasks. After 13-14 days of culture, microglial cells were removed by shaking during 2 h. OPCs were next collected after 18 h of shaking, followed by differential adhesion. OPCs purification was validated by immunostaining of Olig2 and Sox10. To induce differentiation, cells were kept in proliferation medium (DMEM-F12, 1% PS, FGF, PDGF, 1% laminin, Biotin, 2% B27, N1 mix) for 24 h and then switched to a differentiation medium with the same composition but deprived of FGF and PDGF. Cells were incubated at 37° C. […]
For RT-qPCR, transduction at MOI 8 and MOI 2 were used. […] For immunocytochemistry, transfection with MOI 4 was used and labelling with Olig2 and MBP to quantify Olig2+MBP+ differentiated oligodendrocytes.
Our data confirmed efficient lentivirus transduction with multiplicity of infection 4 (MOI 4) and knock-down of VEGFR-1 (FIG. 5A). […] To do so, we quantified Olig2+MBP+ differentiated oligodendrocytes over the total Olig2+ oligodendroglial cells (ratio of Olig2+MBP+ cells/Olig2+ cells) for each condition.

[5] = system: organotypic cerebellar slices; test: Myelination in organotypic cerebellar slices treated with VEGFR-1 blocking peptide; format: cell-based, mouse; conditions: 10 μM, from 5 to 10 days in vitro
Experimental: as §1
Mouse cerebellar slices were prepared as previously described. […]

| Molecule | MBP+ mature oligodendrocytes in organotypic cerebellar slices ([1]; 500 nM) | neuroprotection / number of Purkinje cells relative to basal condition ([2]; 500 nM) | number of SOX10+MBP+ differentiated oligodendrocytes relative to basal condition [3] | also measured |
| --- | --- | --- | --- | --- |
| CNC(=O)c1cccc2cc(Oc3ccnc4cc(OCC5(N)CC5)c(OC)cc34)ccc12 [Lucitanib] | numerous MBP^+ mature oligodendrocytes | higher number of Purkinje cells with respect to the basal condition | significant increase |  |
| Cc1[nH]c(C=C2C(=O)Nc3ccc(F)cc32)c(C)c1C(=O)NC[C@H](O)CN1CCOCC1 [SU14813] | numerous MBP^+ mature oligodendrocytes | enhance neuroprotection of Purkinje cells | significant increase | myelination index (density of myelinated axons) vs basal, 9 cis-RA, VEGFR-2/3 inhibitor and pan-VEGFR inhibitors ([1]; 500 nM): density of myelinated axons was higher |
| CNC(=O)c1cc(COc2nnc(Nc3ccc(Cl)cc3)c3ccoc23)ccn1 [Telatinib] |  | but not of VEGFR-2/3 (Telatinib), enhance neuroprotection | significant increase |  |
| COc1cc2ncnc(Nc3ccc(Cl)cc3F)c2cc1OC [ZM306416] |  |  |  | MBP+ mature oligodendrocytes in organotypic cerebellar slices ([1]; 30 μM): numerous MBP^+ mature oligodendrocytes; myelination index (density of myelinated axons) vs basal, 9 cis-RA, VEGFR-2/3 inhibitor and pan-VEGFR inhibitors ([1]; 30 μM): density of myelinated axons was higher; neuroprotection / number of Purkinje cells relative to basal condition ([2]; 30 μM): enhance neuroprotection of Purkinje cells |
| GNQWFI [VEGFR-1-blocking peptide] |  |  |  | fold increase in the number of Olig2+MBP+ cells [4]: 1.18±0.19 fold; ex-vivo myelination (MBP+CaBP+ myelinated axons) [5]: enhances ex-vivo myelination |
